Assay results: ChEMBL document CHEMBL3600296, “Synthesis and evaluation of pyrrolotriazine based molecules as PI3 kinase inhibitors” (Bioorg Med Chem Lett, 2015)

How the values were obtained:
Details in all cases: 2 h
[1] = Metabolic stability in mouse liver microsomes at 10 uM up to 120 mins by HPLC analysis; assay type: ADME
Liver microsome [2] = experiment: Metabolic stability in human liver microsomes at 10 uM up to 120 mins by HPLC analysis; assay type: ADME
Liver microsome [3] = experiment: Metabolic stability in dog liver microsomes at 10 uM up to 120 mins by HPLC analysis; assay type: ADME, Canis lupus familiaris

Stability [1] | Stability (Liver microsome [2]) | Stability (Liver microsome [3]) | SMILES
Stable | Stable | Stable | c1cc(-c2nc(N3CCOCC3)c3cccn3n2)c2cn[nH]c2c1
Stable | Stable | Stable | COCc1ccc2c(N3CCOCC3)nc(-c3cnc(N)nc3)nn12
Stable | Stable | Stable | Nc1ncc(-c2nc(N3CCOCC3)c3cccn3n2)cn1
